Experimental data taken from US4564627A, “Feed composition” (Nihon Nohyaku Co., Ltd., priority 1982, dated 1986).
“Also recorded” adds a separate entry of the source.

Experiments:
[1] = LD50 mouse (male); conditions: in vivo
From the text: Examples of the compounds represented by the general formula [1] according to this invention and their toxicities are shown below.

[2] = Growth of body weight of broilers (Test Example 1); type: in vivo, "A A Fuji" broilers (chicken); conditions: for Body weight at week age 0: week age 0 (before addition); for Body weight at week age 3: week age 3 (start of addition)
Experimental: (§1) To each group consisting of 30 "A A Fuji" broilers (15 male, 15 female), a commercially available early period broiler feed (crumble form, Cp 22%, ME 3,030 kcal/kg) was given from beginning of feeding to 4 week age, and a latter period broiler feed (mash form, Cp 18%, ME 3,030 kcal/kg) was given ad libitum from 4 week age to 10 week age. The test period was from Oct. 10, 1981 through Dec. 20, 1981. Addition of test compounds to the above feeds in predetermined concentrations was conducted from 3 week age through the completion of the test.
(1) Growth of body weight
[…] All broilers were measured and an average body weight was calculated for each group.

[3] = tested on: laying hens; assay: Strength of eggshell of laying hens (Test Example 2); type: in vivo
From the text: (§2) As test hens, commercially available laying hens of 480 day age were used. The control group fed with a feed not containing any compound of this invention consisted of 100 laying hens, and each test group fed with a feed containing a compound of this invention consisted of 10 laying hens. The test was repeated twice. The test period was 16 weeks from Nov. 17, 1981 to Mar. 8, 1982. The first 4 weeks from the start was a preliminary observation period, during which each group was controlled so as to give the same egg production rate. As the feed, a commercially available feed for laying hens (Cp 16% or above, ME 2,800 kcal/kg or above) was used. From the 5th week, predetermined quantities of test compounds were uniformly added to this feed and the resulting blended feeds were given to test groups. Feeds and water were given ad libitum. Constant lighting was made for 14 hr a day. Egg production rate was daily recorded for each individual hen and egg weight for each test group. Feed intake quantity was obtained by calculating on every other week a difference between quantity fed and quantity left. For examining egg quality, strength of eggshell and thickness of eggshell were measured for all normal eggs laid during a period of the previous day of measurement to 3 P.M. of the measurement day. Strength of eggshell was measured by a FHK eggshell strength tester model FN-597, and thickness of eggshell by a dial thickness gauge.

[4] = Feed consumption of broilers (Test Example 1); type: in vivo, "A A Fuji" broilers (chicken); conditions: 2,400 ppm in feed
Experimental: as §1
Feed consumption was calculated by weighing feeds left at the time of body weight measurement, and therefrom feed conversion ratio was calculated.

[5] = tested on: broilers; assay: Crude fat content in liver of broilers (Test Example 1); type: in vivo, "A A Fuji" broilers (chicken)
Experimental: as §1
(§3) Five broilers at 6 week age, five broilers at 8 week age and ten broilers at 10 week age were taken out from each group and slaughtered. Immediately after slaughtering, they were cooled in water for about 2 hr and the body weight of each slaughtered broiler was measured and subsequently they were stored at 2° C. for about 20 hr. Then, in order to measure abdominal fat, mesentary fat was removed and fat adhered to from gizzard to proventriculus was collected and weighed as the weight of abdominal fat. This weight was divided by body weight to obtain abdominal fat deposit per 100 g of body weight. Further, liver fat was also collected and weighed. A liver under freeze storage was cut into slices in a total quantity of 2 to 3 g. The slices were placed in a cylindrical filter paper and weighed. Then, these slices were dried for 3 hr in a hot air drier kept at 90° C. and subsequently extracted for 17 hr with ethyl ether in a Soxhlet fat extractor. After drying the extract for 3 hr at 60° C. and weighing the residue, crude fat content in liver was calculated.

[6] = tested on: laying hens; assay: Thickness of eggshell of laying hens (Test Example 2); type: in vivo
From the text: as §2

[7] = tested on: broilers; assay: Abdominal fat deposit of broilers (Test Example 1); type: in vivo, "A A Fuji" broilers (chicken)
Experimental: as §1, §3

[8] = Feed intake of laying hens (Test Example 2); type: in vivo; conditions: 2,500 ppm in feed
From the text: as §2, with “Constant lighting was made for 14 hr a day.” left out

SMILES: CC(C)OC(=O)C(C(=O)OC(C)C)=C1SC(C(=O)O)S1 (stereo not shown)
- LD50 [1]: > 5000 mg/kg

SMILES: CC(C)OC(=O)C(C(=O)OC(C)C)=C1SCS1 [compound 1]
- LD50 [1]: > 5000 mg/kg

SMILES: CCOC(=O)C(C(=O)OC(C)C)=C1SCS1 [compound 2]
- LD50 [1]: > 5000 mg/kg

SMILES: CC(C)OC(=O)C(C(=O)OC(C)C)=C1SC=CS1 [compound 4]
- Growth of body weight (in words) ([2]; broilers, 2,400 ppm in feed): badly affected; also recorded: lower growth of body weight
- Body weight at week age 0 ([2]; 200 ppm in feed from 3 week age): 41 g
- Body weight at week age 0 ([2]; 400 ppm in feed from 3 week age): 41 g
- Body weight at week age 0 ([2]; 800 ppm in feed from 3 week age): 41 g
- Body weight at week age 0 ([2]; 2,400 ppm in feed from 3 week age): 41 g
- Body weight at week age 3 ([2]; 200 ppm in feed): 620 g
- Body weight at week age 3 ([2]; 400 ppm in feed): 626 g
- Body weight at week age 3 ([2]; 800 ppm in feed): 625 g
- Body weight at week age 3 ([2]; 2,400 ppm in feed): 621 g
- Body weight at week age 4 ([2]; 200 ppm in feed): 981 g
- Body weight at week age 4 ([2]; 400 ppm in feed): 985 g
- Body weight at week age 4 ([2]; 800 ppm in feed): 984 g
- Body weight at week age 4 ([2]; 2,400 ppm in feed): 974 g
- Body weight at week age 5 ([2]; 200 ppm in feed): 1,341 g
- Body weight at week age 5 ([2]; 400 ppm in feed): 1,346 g
- Body weight at week age 5 ([2]; 800 ppm in feed): 1,330 g
- Body weight at week age 5 ([2]; 2,400 ppm in feed): 1,316 g
- Body weight at week age 6 ([2]; 200 ppm in feed): 1,661 g
- Body weight at week age 6 ([2]; 400 ppm in feed): 1,667 g
- Body weight at week age 6 ([2]; 800 ppm in feed): 1,662 g
- Body weight at week age 6 ([2]; 2,400 ppm in feed): 1,640 g
- Body weight at week age 7 ([2]; 200 ppm in feed): 2,090 g
- Body weight at week age 7 ([2]; 400 ppm in feed): 2,102 g
- Body weight at week age 7 ([2]; 800 ppm in feed): 2,065 g
- Body weight at week age 7 ([2]; 2,400 ppm in feed): 2,003 g
- Body weight at week age 8 ([2]; 200 ppm in feed): 2,502 g
- Body weight at week age 8 ([2]; 400 ppm in feed): 2,512 g
- Body weight at week age 8 ([2]; 800 ppm in feed): 2,496 g
- Body weight at week age 8 ([2]; 2,400 ppm in feed): 2,388 g
- Body weight at week age 9 ([2]; 200 ppm in feed): 2,860 g
- Body weight at week age 9 ([2]; 400 ppm in feed): 2,874 g
- Body weight at week age 9 ([2]; 800 ppm in feed): 2,871 g
- Body weight at week age 9 ([2]; 2,400 ppm in feed): 2,796 g
- Body weight at week age 10 ([2]; 200 ppm in feed): 3,105 g
- Body weight at week age 10 ([2]; 400 ppm in feed): 3,115 g
- Body weight at week age 10 ([2]; 800 ppm in feed): 3,098 g
- Body weight at week age 10 ([2]; 2,400 ppm in feed): 2,984 g
- Eggshell strength ([3]; 509th day, 100 ppm in feed): 2.47 kg
- Eggshell strength ([3]; 509th day, 500 ppm in feed): 2.46 kg
- Eggshell strength ([3]; 509th day, 2,500 ppm in feed): 2.44 kg
- Eggshell strength ([3]; 555th day, 100 ppm in feed): 2.88 kg
- Eggshell strength ([3]; 555th day, 500 ppm in feed): 2.93 kg
- Eggshell strength ([3]; 555th day, 2,500 ppm in feed): 2.97 kg
- Eggshell strength ([3]; 612th day, 100 ppm in feed): 2.97 kg
- Eggshell strength ([3]; 612th day, 500 ppm in feed): 3.02 kg
- Eggshell strength ([3]; 612th day, 2,500 ppm in feed): 3.08 kg
- Feed consumption (in words) [4]: significant reduction of feed consumption
- Crude fat content in liver ([5]; 6w, 200 ppm in feed): 2.20%
- Crude fat content in liver ([5]; 6w, 400 ppm in feed): 2.06%
- Crude fat content in liver ([5]; 6w, 800 ppm in feed): 2.17%
- Crude fat content in liver ([5]; 6w, 2,400 ppm in feed): 2.11%
- Crude fat content in liver ([5]; 8w, 200 ppm in feed): 5.23%
- Crude fat content in liver ([5]; 8w, 400 ppm in feed): 5.02%
- Crude fat content in liver ([5]; 8w, 800 ppm in feed): 4.62%
- Crude fat content in liver ([5]; 8w, 2,400 ppm in feed): 4.04%
- Crude fat content in liver ([5]; 10w, 200 ppm in feed): 4.47%
- Crude fat content in liver ([5]; 10w, 400 ppm in feed): 4.29%
- Crude fat content in liver ([5]; 10w, 800 ppm in feed): 4.25%
- Crude fat content in liver ([5]; 10w, 2,400 ppm in feed): 3.96%
- Eggshell thickness ([6]; 509th day, 100 ppm in feed): 0.345 mm
- Eggshell thickness ([6]; 509th day, 500 ppm in feed): 0.342 mm
- Eggshell thickness ([6]; 509th day, 2,500 ppm in feed): 0.336 mm
- Eggshell thickness ([6]; 555th day, 100 ppm in feed): 0.343 mm
- Eggshell thickness ([6]; 555th day, 500 ppm in feed): 0.350 mm
- Eggshell thickness ([6]; 555th day, 2,500 ppm in feed): 0.347 mm
- Eggshell thickness ([6]; 612th day, 100 ppm in feed): 0.342 mm
- Eggshell thickness ([6]; 612th day, 500 ppm in feed): 0.345 mm
- Eggshell thickness ([6]; 612th day, 2,500 ppm in feed): 0.344 mm
- Abdominal fat deposit ([7]; 6w, 200 ppm in feed): 3.20 g/100 g
- Abdominal fat deposit ([7]; 6w, 400 ppm in feed): 3.02 g/100 g
- Abdominal fat deposit ([7]; 6w, 800 ppm in feed): 2.93 g/100 g
- Abdominal fat deposit ([7]; 6w, 2,400 ppm in feed): 2.92 g/100 g
- Abdominal fat deposit ([7]; 8w, 200 ppm in feed): 3.55 g/100 g
- Abdominal fat deposit ([7]; 8w, 400 ppm in feed): 3.18 g/100 g
- Abdominal fat deposit ([7]; 8w, 800 ppm in feed): 3.22 g/100 g
- Abdominal fat deposit ([7]; 8w, 2,400 ppm in feed): 3.15 g/100 g
- Abdominal fat deposit ([7]; 10w, 200 ppm in feed): 3.83 g/100 g
- Abdominal fat deposit ([7]; 10w, 400 ppm in feed): 3.78 g/100 g
- Abdominal fat deposit ([7]; 10w, 800 ppm in feed): 3.37 g/100 g
- Abdominal fat deposit ([7]; 10w, 2,400 ppm in feed): 3.22 g/100 g
- Feed intake (in words) [8]: a lower value was seen with significance
- LD50 ([1]; unit printed kg/mg): 3120 mg/kg

SMILES: CCOC(=O)C(C(=O)OCC)=C1SC=CS1 [compound 5]
- LD50 [1]: 4900 mg/kg

SMILES: CC(C)OC(=O)C(C(=O)OC(C)C)=C1SCC[S+]1[O-] (stereo not shown) [compound 7]
- LD50 [1]: > 6000 mg/kg

SMILES: CC(C)OC(=O)C(C(=O)OC(C)C)=C1SCC(O)S1 (stereo not shown) [compound 8]
- LD50 [1]: > 6590 mg/kg
